Test results: EP4775575A1, “COMPOUND USED AS CDK4 KINASE INHIBITOR AND USE THEREOF” (TYK Medicines, Inc., priority 2023, dated 2025)

Tests used:
CDK6/CyclinD3 = target: T1, CDK6/CyclinD3 (Homo sapiens, UniProt Q00534); assay: Kinase activity assay (MSA, EZ Reader) against CDK6; format: biochemical; settings: CDK6/CyclinD3 5.00 nM, ATP 350 µM, FL-Peptide34, 10mM MgCl2
T1 construct: purchased Carna 04-107

[1] = tested on: Human breast cancer cells MCF-7; assay: Cell anti-proliferation assay (MTT), MCF-7; format: cell-based; settings: Homo sapiens, MCF7, 120 h, MCF-7 cells, incubated for 5 days
Method in brief: (§1)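 Cells in DMEM with 10% FBS were seeded at 50,000 cells/mL and grown overnight at 37 °C, 5% CO2, then treated at 9 concentrations (3-fold serial dilution, 0.1% DMSO medium). MTT was added for 3 h, formazan dissolved in acidified isopropanol/NP-40, and absorbance read at 570 nm.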

[2] = tested on: human ovarian cancer cells A2780; assay: Cell anti-proliferation assay (MTT), A2780; format: cell-based; settings: Homo sapiens, 120 h, incubated for 5 days
Method in brief: as §1

[3] = tested on: human mantle cell lymphoma cells JEKO-1; assay: Cell anti-proliferation assay (MTT), JEKO-1; format: cell-based; settings: Homo sapiens, 120 h, JEKO-1 cells, incubated for 5 days
Method in brief: as §1

[4] = Preclinical pharmacokinetic study in rats; format: in vivo, Sprague-Dawley (SD) rats; settings: male SD rats, oral gavage (p.o.) 10 mg/kg, plasma; for AUC(0-t) / Cmax / Tmax: Sprague-Dawley, rat
Protocol: Healthy adult Sprague-Dawley (SD) rats, male, 6-8 weeks old, weighing 200-300 g. EDTA-Na2 anticoagulant. Analytical balance, animal weighing scale, magnetic stirrer, refrigerated centrifuge, single-channel manual pipette, etc. About 10 mg of the test sample was precisely weighed, dissolved in a calculated volume of 5% DMSO, followed by addition of 10% solutol HS-15 and 85% normal saline. The mixture was sonicated and vortexed to homogeneity to obtain a solution with a concentration of 1 mg/mL. The solution was freshly prepared before use. Animals were housed in rat cages and fasted overnight (no less than 10 h) before the test, with free access to water. On the day of the test, animals were weighed and marked on the tail. Blank blood samples were collected before administration. The blood was collected via tail vein. • Route of administration: oral gavage (p.o.) • Dose: 10 mg/kg • Dosing volume: 10 mL/kg • Procedure: The rat was held upright with the left hand wearing bite-resistant glove. A 16-gauge gavage needle was inserted through the mouth into the esophagus. The needle was advanced gently without obvious resistance, and the drug solution was injected into the stomach. Whole blood (0.1 mL) were collected from each test animal before administration and at 0.5 […], and 24 h after administration into EDTA-Na2 anticoagulant tubes. The tubes were inverted 3-4 times for mixing, then centrifuged at 10,000 g for 5 min at 4 °C to separate plasma. Plasma samples were stored at -80 °C until analysis. Blood was collected via tail vein. […] The mixture was vortexed for 2 min and centrifuged at 10,000 g for 10 min at 4 °C. Processing of unknown plasma samples: 25 μL of drug-containing rat plasma was transferred, followed by addition of 25 μL of methanol and 200 μL of internal standard solution. The mixture was vortexed for 2 min and centrifuged at 10,000 g for 10 min at 4 °C. The supernatant was collected for LC-MS/MS analysis. A quantitative method for the determination of the test compound was established using a Shimadzu liquid chromatography system coupled with Triple Quad^TM 6500+ AB mass spectrometer. The concentration of the parent drug in plasma was determined. The plasma concentration-time curve was plotted, and the main pharmacokinetic parameters were calculated using a non-compartmental model in winnonlin Phoenix software.

CDK4/CycD1 = CDK4/CycD1 (Homo sapiens, UniProt P11802); assay: Kinase activity assay (MSA, EZ Reader) against CDK4
Sequence of CDK4/CycD1 (P11802 whole entry): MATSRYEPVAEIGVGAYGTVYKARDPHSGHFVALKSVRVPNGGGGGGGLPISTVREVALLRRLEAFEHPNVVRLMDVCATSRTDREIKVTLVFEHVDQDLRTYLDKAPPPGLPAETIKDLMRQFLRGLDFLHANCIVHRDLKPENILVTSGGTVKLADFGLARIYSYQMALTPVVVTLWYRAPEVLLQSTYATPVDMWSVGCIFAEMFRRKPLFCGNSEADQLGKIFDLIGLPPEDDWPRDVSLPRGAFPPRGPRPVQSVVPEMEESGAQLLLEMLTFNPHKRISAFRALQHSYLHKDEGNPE

T1 sequence (Q00534 whole entry): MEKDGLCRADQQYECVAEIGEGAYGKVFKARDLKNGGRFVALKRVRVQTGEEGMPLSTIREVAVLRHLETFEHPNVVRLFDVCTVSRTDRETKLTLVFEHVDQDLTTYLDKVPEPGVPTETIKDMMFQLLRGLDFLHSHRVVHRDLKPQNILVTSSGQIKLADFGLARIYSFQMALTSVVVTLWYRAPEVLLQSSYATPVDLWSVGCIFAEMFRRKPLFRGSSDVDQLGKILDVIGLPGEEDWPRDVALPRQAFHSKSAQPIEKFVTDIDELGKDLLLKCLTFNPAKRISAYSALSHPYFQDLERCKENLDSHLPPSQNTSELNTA
T1 sequence (P30281 whole entry partner): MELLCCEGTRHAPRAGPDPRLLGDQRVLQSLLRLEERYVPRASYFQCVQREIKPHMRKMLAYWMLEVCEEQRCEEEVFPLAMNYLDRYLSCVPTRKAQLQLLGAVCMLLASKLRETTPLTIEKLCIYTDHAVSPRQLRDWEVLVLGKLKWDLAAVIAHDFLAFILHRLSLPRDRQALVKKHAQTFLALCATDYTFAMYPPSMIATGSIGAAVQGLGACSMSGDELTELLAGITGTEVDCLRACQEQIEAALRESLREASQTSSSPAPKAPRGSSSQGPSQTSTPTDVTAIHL

C[C@H]1CCN(CC#N)c2nc3c(F)cc(-c4nc(N[C@@H]5CCOC[C@H]5O)ncc4Cl)cc3n21 [TC-2]
IC50 (CDK6/CyclinD3): 75.7 nM
IC50 [1]: 500 to 2000 nM
IC50 [2]: ≤ 500 nM
IC50 [3]: ≤ 500 nM
AUC(0-t) [4]: 1240 ng·h/mL
Cmax [4]: 400 ng/mL
Tmax [4]: 0.67 h
HL_ [4]: 2.87 h
IC50 (CDK4/CycD1): 4.5 nM

C[C@H]1CCN(C)c2nc3c(F)cc(-c4cc(N[C@@H]5CCOC[C@H]5O)ncc4Cl)cc3n21 [TB-149]
IC50 (CDK6/CyclinD3): 90.8 nM
IC50 [1]: ≤ 500 nM
IC50 [2]: ≤ 500 nM
IC50 [3]: ≤ 500 nM
AUC(0-t) [4]: 25400 ng·h/mL
Cmax [4]: 4160 ng/mL
Tmax [4]: 1.17 h
HL_ [4]: 1.99 h
IC50 (CDK4/CycD1): 5.3 nM

CCS(=O)(=O)N1CCC(Nc2ncc(Cl)c(-c3cc(F)c4nc(N5CCOC5=O)n(C(C)C)c4c3)n2)CC1 [TB-31]
IC50 (CDK6/CyclinD3): 182 nM
IC50 [1]: ≤ 500 nM
IC50 [2]: ≤ 500 nM
IC50 [3]: ≤ 500 nM
AUC(0-t) [4]: 4890 ng·h/mL
Cmax [4]: 923 ng/mL
Tmax [4]: 4 h
HL_ [4]: 1.34 h
IC50 (CDK4/CycD1): 15.3 nM

CC(C)n1c(N2CCOCC2)nc2c(F)cc(-c3nc(N[C@@H]4CCOC[C@H]4O)ncc3Cl)cc21 [TB-12, (3S,4R)-4-((5-chloro-4-(4-fluoro-1-isopropyl-2-morpholino-1H-benzo[d]imidazol-6-yl)pyrimidin-2-yl)amino)tetrahydro-2H-pyran-3-ol]
IC50 (CDK6/CyclinD3): 151 nM
IC50 [1]: ≤ 500 nM
IC50 [2]: ≤ 500 nM
IC50 [3]: ≤ 500 nM
AUC(0-t) [4]: 4500 ng·h/mL
Cmax [4]: 677 ng/mL
Tmax [4]: 1.5 h
HL_ [4]: 3.14 h
IC50 (CDK4/CycD1): 6.01 nM

C[C@H]1CCN(c2ccccc2)c2nc3c(F)cc(-c4nc(N[C@@H]5CCOC[C@H]5O)ncc4Cl)cc3n21 [TA-33]
IC50 (CDK6/CyclinD3): 94.2 nM
AUC(0-t) [4]: 2170 ng·h/mL
Cmax [4]: 262 ng/mL
Tmax [4]: 4.67 h
IC50 (CDK4/CycD1): 3.4 nM

C[C@H]1CCN(c2ccccc2F)c2nc3c(F)cc(-c4nc(N[C@@H]5CCOC[C@H]5O)ncc4Cl)cc3n21 [TC-12]
IC50 (CDK6/CyclinD3): 45.7 nM
IC50 [1]: ≤ 500 nM
IC50 [2]: ≤ 500 nM
IC50 [3]: ≤ 500 nM
AUC(0-t) [4]: 1290 ng·h/mL
Cmax [4]: 417 ng/mL
Tmax [4]: 1 h
HL_ [4]: 2.55 h
IC50 (CDK4/CycD1): 1.9 nM

CC(C)n1c(N2CCOC2=O)nc2c(F)cc(-c3nc(N[C@@H]4CCOC[C@H]4O)ncc3Cl)cc21 [TB-24]
IC50 (CDK6/CyclinD3): 143 nM
IC50 [1]: ≤ 500 nM
IC50 [2]: ≤ 500 nM
IC50 [3]: ≤ 500 nM
AUC(0-t) [4]: 4500 ng·h/mL
Cmax [4]: 677 ng/mL
Tmax [4]: 1.67 h
HL_ [4]: 3.14 h
IC50 (CDK4/CycD1): 10.1 nM

C[C@H]1CCN(C)c2nc3c(F)cc(-c4nc(Nc5ccncc5)ncc4Cl)cc3n21 [TB-137, (S)-5-chloro-4-(9-fluoro-1,4-dimethyl-1,2,3,4-tetrahydrobenzo[4,5]imidazo[1,2-a]pyrimidin-7-yl)-N-(pyridin-4-yl)pyrimidin-2-amine]
IC50 (CDK6/CyclinD3): 175 nM
IC50 [1]: ≤ 500 nM
IC50 [2]: ≤ 500 nM
IC50 [3]: ≤ 500 nM
AUC(0-t) [4]: 3670 ng·h/mL
Cmax [4]: 1240 ng/mL
Tmax [4]: 0.83 h
HL_ [4]: 4.10 h
IC50 (CDK4/CycD1): 28.3 nM

CC(C)n1c(N(C)C)nc2c(F)cc(-c3nc(Nc4ccc(N5CCNCC5)cn4)ncc3Cl)cc21 [TB-18, 6-(5-chloro-2-((5-(piperazin-1-yl)pyridin-2-yl)amino)pyrimidin-4-yl)-4-fluoro-1-isopropyl-N,N-dimethyl-1H-benzo[d]imidazol-2-amine]
IC50 (CDK6/CyclinD3): 13.7 nM
IC50 [1]: ≤ 500 nM
IC50 [2]: ≤ 500 nM
IC50 [3]: ≤ 500 nM
IC50 (CDK4/CycD1): 2.6 nM

CC1CCN(C)c2nc3c(F)cc(-c4nc(NC5CCN(S(C)(=O)=O)CC5)ncc4Cl)cc3n21 (stereo not drawn) [TB-51, 5-chloro-4-(9-fluoro-1,4-dimethyl-1,2,3,4-tetrahydrobenzo[4,5]imidazo[1,2-a]pyrimidin-7-yl)-N-(1-(methylsulfonyl)piperidin-4-yl)pyrimidin-2-amine]
IC50 (CDK6/CyclinD3): 27.6 nM
IC50 [1]: ≤ 500 nM
IC50 [2]: ≤ 500 nM
IC50 [3]: ≤ 500 nM
IC50 (CDK4/CycD1): 2.23 nM

COc1cc(N2CCNCC2)ccc1Nc1ncc(Cl)c(-c2cc(F)c3nc(N(C)C)n(C(C)C)c3c2)n1 [TB-17, 6-(5-chloro-2-((2-methoxy-4-(piperazin-1-yl)phenyl)amino)pyrimidin-4-yl)-4-fluoro-1-isopropyl-N,N-dimethyl-1H-benzo[d]imidazol-2-amine]
IC50 (CDK6/CyclinD3): 297 nM
IC50 [1]: 500 to 2000 nM
IC50 [2]: 500 to 2000 nM
IC50 [3]: 500 to 2000 nM
IC50 (CDK4/CycD1): 33.8 nM

CC1(C)CSc2nc3c(F)cc(-c4nc(N[C@@H]5CCOC[C@H]5O)ncc4Cl)cc3n2C1 [TB-146]
IC50 (CDK6/CyclinD3): 60.1 nM
IC50 [1]: ≤ 500 nM
IC50 [2]: ≤ 500 nM
IC50 [3]: ≤ 500 nM
IC50 (CDK4/CycD1): 11.9 nM

C[C@H]1CCN(C2CC2)c2nc3c(F)cc(-c4nc(N[C@@H]5CCOC[C@H]5O)ncc4Cl)cc3n21 [TA-4]
IC50 (CDK6/CyclinD3): 63.9 nM
IC50 [1]: ≤ 500 nM
IC50 [2]: ≤ 500 nM
IC50 [3]: ≤ 500 nM
AUC(0-t) [4]: 16200 ng·h/mL
Cmax [4]: 4430 ng/mL
Tmax [4]: 1 h
HL_ [4]: 3.19 h
IC50 (CDK4/CycD1): 4.4 nM

C[C@@H]1C[C@H](C)n2c(nc3c(F)cc(-c4nc(N[C@@H]5CCOC[C@H]5O)ncc4Cl)cc32)N1C [TB-154]
IC50 (CDK6/CyclinD3): 75.8 nM
IC50 [1]: ≤ 500 nM
IC50 [2]: ≤ 500 nM
IC50 [3]: ≤ 500 nM
IC50 (CDK4/CycD1): 3 nM
